{"source": "the NIST ThermoML archive (doi:10.1016/j.tca.2019.01.021)", "test": "molar enthalpy of vaporization or sublimation", "conditions": "298.15 K; Crystal; Static calorimetry", "note": "Numbers after ± are expanded uncertainties.", "data": [{"smiles": "OCCc1c[nH]c2ccccc12", "note": "[2-(1H-indol-3-yl)ethanol]", "values": [{"measurement": "molar enthalpy", "result": "28.6 ± 0.598", "unit": "kcal/mol"}]}]}
